Measured values from the supplement of paper PMC10307832.

Assays:
Test in all cases: relative viability (nuclei count vs DMSO), 5 days (fraction); higher = more cells survive
[1] = compound: CN(C)CC1=CC(=CC=C1)N=C(C2=CC=CC=C2)C3=C(NC4=C3C=CC(=C4)C(=O)N(C)C)O + CC(=O)c1c(C)c2cnc(Nc3ccc(N4CCNCC4)cn3)nc2n(C2CCCC2)c1=O [Palbociclib] (partner 0.5 µM)
In short: (§1)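 Lung cancer cell lines were pin-tool dosed in 1536-well plates on the day after seeding, with either a lone drug or a fixed anchor-drug dose plus five library-drug doses (not always all listed) in √10 steps. Nuclei were counted on 4× images after 5 days. Relative viability is the ratio of treated-well to vehicle-well nuclei counts, with each value a median of duplicate plates.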

[2] = compound: CN(C)CC1=CC(=CC=C1)N=C(C2=CC=CC=C2)C3=C(NC4=C3C=CC(=C4)C(=O)N(C)C)O + C[C@@H](Oc1cc(-c2cnn(C3CCNCC3)c2)cnc1N)c1c(Cl)ccc(F)c1Cl [Crizotinib] (partner 1 µM)
In short: as §1

[3] = compound: CN(C)CC1=CC(=CC=C1)N=C(C2=CC=CC=C2)C3=C(NC4=C3C=CC(=C4)C(=O)N(C)C)O + NC(=O)Nc1cc(-c2cccc(F)c2)sc1C(=O)N[C@H]1CCCNC1 [AZD7762] (partner 0.2 µM)
In short: as §1

[4] = compound: CN(C)CC1=CC(=CC=C1)N=C(C2=CC=CC=C2)C3=C(NC4=C3C=CC(=C4)C(=O)N(C)C)O + O=C(CCCCCCC(=O)Nc1ccccc1)NO [Vorinostat] (partner 1 µM)
In short: as §1

Cell Line	relative viability ([1]; first compound 0.08 µM)	relative viability ([1]; first compound 0.253 µM)	relative viability ([1]; first compound 0.8 µM)	relative viability ([1]; first compound 2.53 µM)	relative viability ([1]; first compound 8 µM)	relative viability ([2]; first compound 0.08 µM)	relative viability ([2]; first compound 0.253 µM)	relative viability ([2]; first compound 0.8 µM)	relative viability ([2]; first compound 2.53 µM)	relative viability ([2]; first compound 8 µM)	relative viability ([3]; first compound 0.08 µM)	relative viability ([3]; first compound 0.253 µM)	relative viability ([3]; first compound 0.8 µM)	relative viability ([3]; first compound 2.53 µM)	relative viability ([3]; first compound 8 µM)	relative viability ([4]; first compound 0.08 µM)	relative viability ([4]; first compound 0.253 µM)	relative viability ([4]; first compound 0.8 µM)	relative viability ([4]; first compound 2.53 µM)	relative viability ([4]; first compound 8 µM)
HCC-366	0.406	0.364	0.404	0.412	0.341	0.484	0.503	0.513	0.47	0.558	0.303	0.252	0.248	0.157	0.315	0.471	0.369	0.458	0.299	0.473
HCC-827	0.516	0.385	0.38	0.52	0.472	0.919	0.909	0.923	0.879	0.868	0.232	0.26	0.156	0.229	0.182	0.861	0.803	0.801	0.867	0.815
IA-LM						0.937	0.797	0.906	0.926	1.04						0.911	0.848	0.903	0.958	1.02
NCI-H520	0.234	0.2	0.214	0.195	0.173	0.713	0.722	0.833	0.705	0.71						0.715	0.644	0.831	0.621	0.536
NCI-H522	0.956	1.04	0.906	0.886	0.923						0.972	0.871	0.855	0.953	0.736	0.986	0.984	0.89	0.977	0.843
NCI-H596						1	0.952	1.04	0.968	0.785	1.22	1.29	0.979	1.06	0.987	0.575	0.72	0.585	0.554	0.862
NCI-H661	0.435	0.381	0.391	0.392	0.429		0.981	1.03	0.862	0.994						0.901	0.756	0.769	0.751	0.748
NCI-H1395	0.617	0.612	0.698	0.544	0.602						0.406	0.343	0.446	0.39	0.42	0.705	0.845	0.886	0.589	0.701
NCI-H1563						0.872	0.871	0.833	0.846	0.771										
NCI-H1648	0.274	0.276		0.365	0.315						0.638	0.706		0.718	0.606	0.518	0.585		0.512	0.446
NCI-H1650	0.36	0.399	0.331	0.314	0.364	1.14	0.956	1.03	0.977	0.749						0.619	0.698	0.444	0.546	0.652
